In ChEMBL document CHEMBL1201862, “PubChem BioAssay data set” (2004):
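96-well plates; 48 h exposure; 5 concentrations. Endpoints by linear interpolation between flanking doses. Not reached: highest tested concentration assigned. Here, GI50 denotes the concentration required for 50% inhibition of growth.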 Activity calls are given as the source filed them. Rule as the data show it: active = GI50 up to about 1.1 µM and inactive = higher.

Tests used:
Assay in all cases: NCI-60 cell line screen, 48 h
[1] = system: NCI-H460
[2] = system: COLO 205
[3] = system: HCT-15
[4] = system: SK-MEL-28
[5] = system: U-251
[6] = system: KM12
[7] = system: HCT-116
[8] = system: SN12C
[9] = system: LOX IMVI
[10] = system: M14
[11] = system: ACHN
[12] = system: T47D
[13] = system: SF-295
[14] = system: OVCAR-5
[15] = system: SW-620
[16] = system: UO-31
[17] = system: HCC 2998
[18] = system: SK-MEL-2
[19] = system: SR

Row | Compound | GI50 [1] | GI50 [2] | GI50 [3] | GI50 [4] | GI50 [5] | GI50 [6] | GI50 [7] | GI50 [8] | GI50 [9] | GI50 [10] | GI50 [11] | GI50 [12] | GI50 [13] | GI50 [14] | GI50 [15] | GI50 [16] | GI50 [17] | GI50 [18] | GI50 [19]
1 | c1ccc(-c2cnc(-c3ccc(-c4ncc(-c5ccccc5)o4)cc3)o2)cc1 | > 100 µM (inactive) | > 100 µM (inactive) | > 100 µM | > 100 µM (inactive) | > 100 µM (inactive) | > 100 µM (inactive) | > 100 µM (inactive) | > 100 µM (inactive) | > 100 µM (inactive) | > 100 µM (inactive) | > 100 µM (inactive) | > 100 µM (inactive) | > 100 µM (inactive) | > 100 µM (inactive) | > 100 µM (inactive) | > 100 µM (inactive) | > 100 µM (inactive) | – | –
2 | COc1ccc(C2OC(c3ccncc3)=NN2C)cc1OC (stereo not given) | > 100 µM (inactive) | > 100 µM (inactive) | > 100 µM | > 100 µM (inactive) | > 100 µM (inactive) | > 100 µM (inactive) | > 100 µM (inactive) | > 100 µM (inactive) | > 100 µM (inactive) | > 100 µM (inactive) | > 100 µM (inactive) | 67.1 µM (inactive) | > 100 µM (inactive) | > 100 µM (inactive) | > 100 µM (inactive) | 60.1 µM (inactive) | > 100 µM (inactive) | > 100 µM (inactive) | –
3 | CN1C(=O)c2c(ccc3c2OCO3)C2C(O)Cc3cc4c(cc3C21)OCO4 (stereo not given) | 3.4 µM (inactive) | 3.88 µM (inactive) | 3.73 µM | 3.22 µM (inactive) | 4.29 µM (inactive) | 3.15 µM (inactive) | 4.34 µM (inactive) | 4.15 µM (inactive) | 9.12 µM (inactive) | 5.78 µM (inactive) | 7.21 µM (inactive) | – | 1.71 µM (inactive) | > 100 µM (inactive) | 3.79 µM (inactive) | 6.37 µM (inactive) | 4.06 µM (inactive) | 2.47 µM (inactive) | –
4 | CCOC(=O)c1c(N)sc2c1C(C)(C(=O)OCC)CC2 (stereo not given) | 69.5 µM (inactive) | > 100 µM (inactive) | > 100 µM | > 100 µM (inactive) | > 100 µM (inactive) | > 100 µM (inactive) | 97.5 µM (inactive) | > 100 µM (inactive) | – | > 100 µM (inactive) | > 100 µM (inactive) | – | – | > 100 µM (inactive) | > 100 µM (inactive) | 63.8 µM (inactive) | > 100 µM (inactive) | > 100 µM (inactive) | 92.7 µM (inactive)
5 | COc1ccc(/C=N/N=C(\N)NO)cc1O | 25.5 µM (inactive) | 25.8 µM (inactive) | 42.9 µM | 49.8 µM (inactive) | 62.5 µM (inactive) | 45.8 µM (inactive) | 37.5 µM (inactive) | 30.9 µM (inactive) | 26.7 µM (inactive) | – | – | – | – | > 100 µM (inactive) | 44.7 µM (inactive) | 45 µM (inactive) | 17.5 µM (inactive) | 76.4 µM (inactive) | –
6 | Cc1cc2c(cc1Cl)SC(NNc1cnc3ccccc3n1)=NS2(=O)=O | 33.8 µM (inactive) | 49.7 µM (inactive) | 75.2 µM | 60.5 µM (inactive) | 48.6 µM (inactive) | 74.3 µM (inactive) | 48.1 µM (inactive) | 88.3 µM (inactive) | 46 µM (inactive) | 74.1 µM (inactive) | > 100 µM (inactive) | 55.1 µM (inactive) | 29.9 µM (inactive) | > 100 µM (inactive) | 67.8 µM (inactive) | 30.4 µM (inactive) | 67.9 µM (inactive) | – | –
7 | CN(C)CCNc1ccc(NCC[N+](C)(C)Cc2ccc([N+](=O)[O-])cc2)c2c1C(=O)c1c(O)ccc(O)c1C2=O | – | 27.6 µM (inactive) | 6.82 µM | > 100 µM (inactive) | 34 µM (inactive) | 26.1 µM (inactive) | 15.8 µM (inactive) | 12.2 µM (inactive) | 25.5 µM (inactive) | – | – | 36.3 µM (inactive) | – | – | 27.9 µM (inactive) | – | > 10 µM (inactive) | > 100 µM (inactive) | –
8 | N#Cc1nc(-c2ccccc2O)oc1N | – | – | 43.5 µM | > 100 µM (inactive) | > 100 µM (inactive) | 42 µM (inactive) | 78.2 µM (inactive) | 81.1 µM (inactive) | 53.7 µM (inactive) | > 100 µM (inactive) | > 100 µM (inactive) | – | – | > 100 µM (inactive) | 65 µM (inactive) | – | – | > 100 µM (inactive) | –
9 | CC(C)OC1=C(CC2(C)OCCO2)C(=O)C12OCCO2 | > 100 µM (inactive) | > 100 µM (inactive) | > 100 µM | > 100 µM (inactive) | > 100 µM (inactive) | > 100 µM (inactive) | > 100 µM (inactive) | > 100 µM (inactive) | > 100 µM (inactive) | > 100 µM (inactive) | > 100 µM (inactive) | > 100 µM (inactive) | > 100 µM (inactive) | > 100 µM (inactive) | > 100 µM (inactive) | > 100 µM (inactive) | – | > 100 µM (inactive) | –
